This is an account of results in patent US9688642B2, “Substituted pyrazines as GPR40 agonists” (Janssen Pharmaceutica NV, priority 2014, dated 2017).

Several values for one entry are separate records, joined by “and”; a condition that tells them apart may be missing. Equal values may be shown once.

For assay [1], the target named is human GPR40 (Homo sapiens (Human), UniProt O14842). Nature of the assay: GPR40 calcium flux assay, HEK293 cells stably expressing human GPR40. Format: cell-based. The note with it: transfected HEK293 cells stably expressing human GPR40; individual determinations listed; read-out: hGPR40 Ca2+ Assay EC50. As to the method: (§1) Compounds were tested in a calcium flux assay using transfected HEK293 cells stably expressing either human GPR40 or rat GPR40. Human GPR40 expressing cells were cultured in DMEM-High Glucose media supplemented with 10% fetal bovine serum, 1×L-Glutamine, 1× Penicillin/Streptomycin and 500 μg/mL G418. Rat GPR40 expressing cells were cultured in DMEM-High Glucose media supplemented with 10% fetal bovine serum and 1 μg/mL puromycin. Cells were plated into poly-D-lysine coated 384-well plates and cultured overnight in a 37° C. humidified tissue culture incubator under 5% CO2/90% O2 atmosphere. On the day of the experiment, the culture media was replaced with assay buffer (HBSS, 20 mM HEPES, 0.1% BSA) and the cells incubated at 37° C. for 1 h. Calcium-sensitive fluorescent dye (Fluo 8 No-Wash Calcium Dye, ABD Bioquest) was then added and the cells incubated for another 30 min at 37° C. followed by 15 min at room temperature while protected from the light. The cell plate and a plate of diluted compounds of Formula (I) were loaded into a fluorescent plate reader that added compounds onto the cells while measuring the fluorescence intensity of each well. The plate reader recorded fluorescence intensity at 1 second intervals for 8 min and provided the data for analysis in an Excel format. EC50 values were calculated using Prism (GraphPad) software.

The target of assay [2] is rat GPR40 (Rattus norvegicus (Rat), UniProt Q8K3T4). Kind of assay: GPR40 calcium flux assay, HEK293 cells stably expressing rat GPR40. Format: cell-based. The note with it: transfected HEK293 cells stably expressing rat GPR40; individual determinations listed; read-out: rGPR40 Ca2+ Assay EC50. As for the experimental part:
as §1

In assay [3] the test system is Male SD rats. Kind of assay: Oral glucose tolerance test. The format is in vivo, rat. The conditions noted are these: dosed 30 min prior to oGTT (glucose 2 g/kg po), blood glucose AUC t=0 to t=120 minutes vs vehicle. As to the method:
Male SD rats (200-250 g) were housed 2 per cage in a temperature-controlled room with a 12-hour light/dark cycle. They were allowed ad libitum access to water and fed with normal rodent chow. The night before the oral glucose tolerance test (oGTT), the rats were transferred to clean cages and fasted overnight. On the morning of the oGTT, the rats were weighed and randomized into groups based on fasted blood glucose and body weight. Rats were dosed with vehicle (0.5% methocel) or compounds thirty min prior to the oGTT (glucose, 2 g/kg, po). Blood was collected from the tail vein at 0, 10, 30, 60 and 120 minutes after glucose challenge to measure blood glucose; plasma was used to determine insulin levels.

Sequence of human GPR40 (O14842 whole entry): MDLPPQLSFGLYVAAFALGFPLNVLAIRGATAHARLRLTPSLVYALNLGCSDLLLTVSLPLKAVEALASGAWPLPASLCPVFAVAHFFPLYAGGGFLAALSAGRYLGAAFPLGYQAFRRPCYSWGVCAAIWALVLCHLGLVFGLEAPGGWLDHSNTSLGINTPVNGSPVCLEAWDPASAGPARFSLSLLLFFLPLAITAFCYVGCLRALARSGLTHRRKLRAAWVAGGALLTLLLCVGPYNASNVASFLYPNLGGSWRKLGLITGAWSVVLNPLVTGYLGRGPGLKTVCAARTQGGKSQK
Sequence of rat GPR40 (Q8K3T4 whole entry): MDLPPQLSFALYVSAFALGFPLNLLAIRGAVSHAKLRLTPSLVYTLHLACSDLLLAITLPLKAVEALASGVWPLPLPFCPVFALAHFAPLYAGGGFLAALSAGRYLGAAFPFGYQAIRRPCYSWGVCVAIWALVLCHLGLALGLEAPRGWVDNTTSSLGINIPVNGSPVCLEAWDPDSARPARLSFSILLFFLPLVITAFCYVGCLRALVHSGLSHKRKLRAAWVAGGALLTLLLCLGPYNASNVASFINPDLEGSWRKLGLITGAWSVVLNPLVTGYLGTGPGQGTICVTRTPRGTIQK

Usually EC50 stands for the concentration at which the effect is half-maximal. Take `COc1ccc(F)c(-c2ncc(COc3cccc([C@@H](CC(=O)O)C4CC4)c3)nc2OC2CCCC2)c1` [Cpd 13, (3S)-3-[3-[[6-(cyclopentoxy)-5-(2-fluoro-5-methoxy-phenyl)pyrazin-2-yl]methoxy]phenyl]-3-cyclopropyl-propanoic acid]: the concentration giving a half-maximal response (EC50) is 19 nM (2×) and 20 nM and 10 nM and 8 nM in assay [1]; 31 nM and 30 nM (2×) and 53 nM and 33 nM in assay [2]. The “Percent Lowering of Glucose (AUC compound vs. AUC Vehicle)” value in assay [3] amounted to 84%.
